Test results from patent US10941379B2, “Microbial system for biosynthesis of natural and engineered products coupled to in situ extraction in supercritical CO2” (Massachusetts Institute of Technology, priority 2016, dated 2021).

Assays:
B. megaterium SR7 spores [1] = test: Delayed germination induction in PBS under 1 atm CO2 (bulk fluorescence, OD600); format: cell-based, Bacillus megaterium; details: 9.5 hours after delayed induction in PBS; for OD600 Fold Decrease: OD decrease indicative of germination
Experimental: Sub-sample bulk fluorescence (Syto9®) was measured by microplate reader (BioTek Synergy 2; 485/20 excitation, 528/20 emission) and OD600 was measured by microplate reader. OD should decrease in germinated cells (the index of refraction decreases due to hydration upon spore coat degradation) while bulk fluorescence should increase as the nucleic acid stain progressively penetrates and permeates the cell (Magge et al., 2009). To test for germination after a delayed inducer spike rather than at the moment of inoculation, B. megaterium SR7 spores loaded at OD600 0.01 were incubated overnight in 30 ml of PBS, passaged into PBS amended with L-alanine (25-250 mM) or L-leucine (10-25 mM) and then assayed for germination by bulk fluorescence and OD600 during incubation.

B. megaterium SR7 spores [2] = test: Spore germination induction in PBS under 1 atm CO2 (fluorescence microscopy, bulk fluorescence); format: cell-based, Bacillus megaterium; details: 100 mM, 8.5 hour endpoint (maximum)
Experimental: The role of candidate germination inducers was subsequently investigated in PBS buffer rather than growth medium to decouple the germination process from outgrowth. B. megaterium SR7 spores were loaded in triplicate 10 ml PBS amended with 100-250 mM L-alanine, 100 mM L-alanine with heat treatment, 25 mM L-leucine, or an unamended PBS control. The extent of germination was measured by fluorescence microscopy staining patterns (e.g., the degree of cell membrane penetration by DNA stain), bulk fluorescence, OD600, and flow cytometry (FCM). A total of 100-300 cells per filter were counted and categorized as either “dormant” or “germinated” if the spore stain was localized to the cell membrane or diffused within the interior of the cell, respectively (Cronin and Wilkinson, 2007). Cells displaying an intermediate degree of stain dispersal (“activated”) were categorized as germinated (FIG. 1).
Sub-sample bulk fluorescence (Syto9®) was measured by microplate reader (BioTek Synergy 2; 485/20 excitation, 528/20 emission) and OD600 was measured by microplate reader. OD should decrease in germinated cells (the index of refraction decreases due to hydration upon spore coat degradation) while bulk fluorescence should increase as the nucleic acid stain progressively penetrates and permeates the cell (Magge et al., 2009). […]

B. megaterium SR7 spores [3] = test: Flow cytometry germination assay (Syto16/PI); format: cell-based, Bacillus megaterium; details: PBS amended with 2.5, 25, 250 mM
Experimental: FCM was employed as a high-throughput germination assay based on Baier et al., (2010). Triplicate cultures of B. megaterium SR7 spores loaded at OD600 0.01 were incubated overnight in PBS and PBS amended with 2.5-250 mM L-alanine, along with cell-free PBS controls. Prior to loading on the flow cytometer (BD FACS Canto II HTS-1; Becton Dickinson; Franklin Lakes, N.J.) cultures were diluted 1/50 in PBS and stained with Syto16® and propidium iodide (PI) in the dark for at least 30 minutes prior to analysis. After spore and media-only samples were used to set forward scatter, side-scatter, Syto16 and PI gates, sample data was collected and analyzed using […]™ software (BD Biosciences; Franklin Lakes, N.Y.).

B. megaterium SR7 [4] = test: Biolog GenIII sole carbon source growth; format: cell-based, Bacillus megaterium; details: for Growth in carbon source Biolog plate, +Metals: trace metals-amended plate; for Growth in carbon source Biolog plate, +Metals / Growth in carbon source Biolog plate, I / Growth in carbon source Biolog plate, II: Table 11; for Growth in carbon source Biolog plate, I: unamended plate trial I; for Growth in carbon source Biolog plate, II: unamended plate trial II
Experimental: (§1) Plates were incubated at 37° C. on a plate shaker at 200 rpm and assayed for growth using NADH-dependent colorimetric changes measured by OD490 on a microplate reader (BioTek Synergy 2; BioTek; Winooski, Vt.).

B. megaterium SR7 spores [5] = test: Spore germination and growth under scCO2 with germination inducers; format: cell-based, Bacillus megaterium
Experimental: SR7 growth outcomes were investigated under scCO2 headspace (90-100 atm; 37° C.) while shaking at 250 rpm. SR7 spores were inoculated at starting concentrations of ˜3×10^4 spores/ml (unless otherwise specified) in either 50 mM K2HPO4-buffered LB (P-LB) or M9+ media (Table 1). Experiments assaying the effect of germination induction included 100 mM L-alanine and 10 mM L-leucine media amendments and heat treatment upon reactor pressurization (70° C. for 10 minutes). Incubations were conducted in 316 stainless steel vessels and gradually pressurized to supercritical conditions using a CO2/He cylinder, as previously described. SR7 germination was verified by the identification of vegetative cell morphologies using fluorescence microscopy of Syto9-stained cultures. Growth was defined by an increase of at least 10-fold growth in cell counts relative to t0.
In order to ascertain whether L-alanine, L-leucine, and heat treatment induce germination under scCO2 headspace, three replicate experiments were conducted comparing growth for SR7 spores when loaded in media P-LB, P-LBL, P-LBAL, or P-LBA±heat treatment (Table 1; Table 2). Reactors were depressurized and scored for germination and growth by fluorescence microscopy, as previously described.
Cell densities of P-LB and L-PBA incubations from the three experiments (Table 3; Incubations A-C) were subjected to statistical analysis to establish the significance of 100 mM L-alanine on spore growth outcomes. A non-parametric Wilcoxon/Kruskal-Wallis Test was performed on the dataset (JMP® Pro v.12; SAS Cary, N.C.) where growth outcome (growth/no growth) and cell density fold change (relative to t0) were dependent variables and incubation time and inducer presence/absence (±100 mM L-alanine) were independent variables. […]

B. megaterium SR7 spores [6] = test: Spore germination in LB under 1 atm CO2; format: cell-based, Bacillus megaterium; details: 100 mM L-alanine-amended LB, unamended cultures grew between 4.5 and 6 hours
Experimental: The ability to induce spore germination based on literature precedent was tested by inoculating triplicate 10 ml cultures of SR7 spores at OD600 0.01 in LB amended with 100 mM L-alanine, LB subjected to a heat activation (65° C. for 15 minutes) upon inoculation, or unamended LB as a control. Growth was scored by OD600 and LB agar CFU plate counts. In addition, subsamples were heat-killed by exposure to 80° C. for 10 minutes (Setlow, 2006) prior to plating, to ascertain remaining spore concentrations, as heat exposure is lethal to vegetative cells.

B. megaterium SR7 [7] = test: M9 supplemented growth under 1 atm CO2 (OD600); format: cell-based, Bacillus megaterium; details: amendment to M9 base medium, 1 atm CO2, scored by OD600
Excerpt: Development of a minimal medium enables individual chemical components to be tuned in order to establish optimized growth from a sole carbon source under 1 atm CO2. Initial attempts to generate B. megaterium SR7 growth in triplicate cultures tested various amendments to M9 base medium (thelabrat.com; Table 1), including 0.4% glucose or 0.4% xylose amendments as sole carbon sources, with or without trace metals solution (Boone et al., 1989). The 1× concentration trace metals solution consisted of (in g/l): 0.005 Na2(EDTA), 0.0002 NiSO4.6H2O, 0.0005 CoCl2.6H2O, 0.0001H2FeO3, 0.001 FeSO4.7H2O, 0.0001H3BO3, 0.001 ZnCl2, 0.0001 NaMoO4.2H2O, 0.0004 AlCl3.6H2O, 0.001 MnCl2.4H2O, 0.0003 Na2NO4.2H2O, 0.0002 CaCl2. To further boost growth, triplicate cultures of M9+0.4% glucose were amended with dilute LB (0.001-0.01×) or yeast extract (YE; 0.001-0.01×) as de facto vitamin and co-factor solutions, and/or NaNO3 (5 mM) as an alternative electron acceptor. All M9 incubations were scored for growth by OD600 and designated as robust above OD600>0.600, low level between 0.2-0.6, and no growth below 0.2. Passaged vegetative cultures were also assayed in duplicate for growth (by OD600) amended with a range (0.1×, 0.25×, 1×) of trace metals solutions in M9+0.4% glucose+0.01×YE media, including in the presence and absence of 5 mM NaNO3.

B. megaterium SR7 [8] = details: LB, aerobic
Experimental: To help guide optimization of growth conditions for strain SR7, physiological tests were conducted under aerobic conditions. To determine tolerance for pH, salinity and bicarbonate, high throughput culturing was done in 96 well plates and scored for growth by OD600 using a microplate reader (BioTek Synergy 2; BioTek; Winooski, Vt.). 200 uL LB solutions/well were inoculated in triplicate with 10^4 spores/ml (based on SR7 spore stock filter counts) and incubated on a plate rocker at 37° C. with unamended positive and cell-free negative LB controls. Tests for pH tolerance (pH 2-10) were conducted in LB medium amended with HCl or NaOH. The effect of salinity and bicarbonate on growth was determined by adding NaCl (1-10%) and NaHCO3 (0.1-0.5M), respectively, to LB media. Optimal SR7 growth temperature was tested by inoculating 10^4 spores/ml in 5 ml of LB in triplicate at temperatures of 9-55° C. Cultures and cell-free negative controls were incubated without shaking, with subsamples taken for periodic OD600 measurements. SR7 antibiotic sensitivity was determined by supplementing 5 ml LB with ampicillin (5-50 μg/ml), chloramphenicol (3.5-35 μg/ml), kanamycin (5-50 μg/ml), spectinomycin (10-100 μg/ml), streptomycin (10-100 μg/ml), or tetracycline (1.5-15 μg/ml).

B. megaterium DSM319 = test: Biolog GenIII sole carbon source growth; format: cell-based, Bacillus megaterium; details: no metals added; Table 10
Experimental: as §1

B. megaterium QM B1551 = test: Biolog GenIII sole carbon source growth; format: cell-based, Bacillus megaterium; details: no metals added; Table 10
Experimental: as §1

[9] = pooled incubations, 18-20 days, unamended reactors 36%
[10] = assayed 0, 5, 10, 50, 80, 100 g/L over 36 h
[11] = assayed 0, 100, 300, 500 mM over 36 h

## C[C@H](N)C(=O)O [L-alanine]
B. megaterium SR7 spores [1]; 25 mM inducer
  Fluorescence Fold Increase: 2.1 fold
  OD600 Fold Decrease: 1.5 fold
B. megaterium SR7 spores [1]; 100 mM inducer
  Fluorescence Fold Increase: 1.4 fold
  OD600 Fold Decrease: 1.2 fold
B. megaterium SR7 spores [1]; 250 mM inducer
  Fluorescence Fold Increase: 1.4 fold
  OD600 Fold Decrease: 1.2 fold
B. megaterium SR7 spores [2]
  Bulk fluorescence relative to PBS only incubated spores: 2.4 fold
B. megaterium SR7 spores [3]; PBS only 3.7%
  Spores gated as germinated (Syto16/PI fluorescence): 1.38-31.8%
B. megaterium SR7 spores [3]; PBS only 22.0%
  Spores gated as activated (Syto16/PI fluorescence): 44-69%
B. megaterium SR7 [4]
  Growth in carbon source Biolog plate, +Metals: +
  Growth in carbon source Biolog plate, I: +
  Growth in carbon source Biolog plate, II: +
B. megaterium SR7 spores [5]; [9]
  Growth frequency of cultures under scCO2: 63%
B. megaterium SR7 spores [5]; with heat treatment
  Growth frequency of cultures under scCO2: 50%
B. megaterium SR7 spores [6]
  Time to germination: ≤ 4.5 h

## O=C[C@H](O)[C@@H](O)[C@H](O)CO [0.4% Xylose, Xylose]
B. megaterium SR7 [7]
  Growth: − (no growth below 0.2)

## [Cl-].[Na+] [NaCl]
B. megaterium SR7 [8]; [10]
  Optimal for SR7 growth, [NaCl]: 0 to 10 g/L
  Range of viable SR7 growth, [NaCl]: 0 to 100 g/L

## O=C(O)[C@H](O)[C@@H](O)[C@H](O)[C@H](O)CO [D-Gluconic Acid]
B. megaterium DSM319
  Growth on Biolog sole carbon source, DSM319: +++
B. megaterium QM B1551
  Growth on Biolog sole carbon source, QM B1551: +
B. megaterium SR7 [4]; no metals added, Table 10
  Growth on Biolog sole carbon source, SR7: +
B. megaterium SR7 [4]
  Growth in carbon source Biolog plate, +Metals: +++
  Growth in carbon source Biolog plate, I: +
  Growth in carbon source Biolog plate, II: +

## O=C(O)O [NaHCO3]
B. megaterium SR7 [8]; [11]
  Optimal for SR7 growth, NaHCO3: 0 to 100 mM
  Range of viable SR7 growth, NaHCO3: 0 to 300 mM

## CC(C)C[C@H](N)C(=O)O [L-leucine]
B. megaterium SR7 spores [1]; 10 mM inducer
  Fluorescence Fold Increase: 2.0 fold
  OD600 Fold Decrease: 1.2 fold
B. megaterium SR7 spores [1]; 25 mM inducer
  Fluorescence Fold Increase: 2.0 fold
  OD600 Fold Decrease: 1.2 fold
B. megaterium SR7 spores [5]; [9]
  Growth frequency of cultures under scCO2: 7.7%
